According to ChEMBL document CHEMBL3046786, “Synthesis of piperazinyl benzothiazole/benzoxazole derivatives coupled with 1,3,4-oxadiazole-2-thiol: novel hybrid heterocycles as anticancer agents” (Med Chem Res, 2013):

Legend:
Assay type in all cases: functional, cell-based
A549 = test: Anticancer activity against Homo sapiens (human) A549 cells assessed as inhibition of cell viability after 72 hr by MTT assay; details: A549, 72 h
HepG2 = test: Anticancer activity against Homo sapiens (human) HepG2 cells assessed as inhibition of cell viability after 72 hr by MTT assay; details: HepG2, 72 h
HeLa = test: Anticancer activity against Homo sapiens (human) HeLa cells assessed as inhibition of cell viability after 72 hr by MTT assay
A-431 = test: Anticancer activity against Homo sapiens (human) A431 cells assessed as inhibition of cell viability after 72 hr by MTT assay; details: A-431, 72 h
MCF7 = test: Anticancer activity against Homo sapiens (human) MCF7 cells assessed as inhibition of cell viability after 72 hr by MTT assay; details: MCF7, 72 h

Row | IC50 (A549) [µM] | IC50 (HepG2) [µM] | IC50 (HeLa) [µM] | IC50 (A-431) [µM] | IC50 (MCF7) [µM] | SMILES
1 | 108 | 102 | 67 | 57.6 | 117 | c1ccc(-c2nnc(SCCCN3CCN(c4nc5ccccc5o4)CC3)o2)cc1
2 | 53.9 | 96.7 | 179 | 61.6 | 107 | Cc1ccc(-c2nnc(SCCCN3CCN(c4nc5ccccc5s4)CC3)o2)cc1
3 | 90.3 | 134 | 165 | 56.2 | 171 | COc1ccc(-c2nnc(SCCCN3CCN(c4nc5ccccc5s4)CC3)o2)cc1
4 | 88.7 | 325 | 78.1 | 55.9 | 39 | O=C(NCc1nnc(SCCCN2CCN(c3nc4ccccc4s3)CC2)o1)c1ccccc1
5 | 90.8 | 67.2 | 114 | 46.9 | 90.1 | O=[N+]([O-])c1ccc(-c2nnc(SCCCN3CCN(c4nc5ccccc5o4)CC3)o2)cc1
6 | 62.5 | 103 | 243 | 51.6 | 96.3 | Brc1ccc(-c2nnc(SCCCN3CCN(c4nc5ccccc5s4)CC3)o2)cc1
7 | 257 | 217 | 229 | 93.4 | 76.9 | c1ccc(-c2nnc(SCCCN3CCN(c4nc5ccccc5s4)CC3)o2)cc1
8 | 110 | 87.7 | 177 | 69.2 | 116 | Clc1ccc(-c2nnc(SCCCN3CCN(c4nc5ccccc5s4)CC3)o2)cc1
9 | 71.6 | 202 | 217 | 67 | 89.3 | CC(C)(C)Oc1ccc(-c2nnc(SCCCN3CCN(c4nc5ccccc5s4)CC3)o2)cc1
10 | 127 | 121 | 101 | 89.6 | 99.7 | Clc1ccc(-c2nnc(SCCCN3CCN(c4nc5ccccc5o4)CC3)o2)cc1
11 | 263 | 121 | 269 | 65.8 | 94.9 | CC(C)(C)Oc1ccc(-c2nnc(SCCCN3CCN(c4nc5ccccc5o4)CC3)o2)cc1
12 | 102 | 88.9 | 63.9 | 36.9 | 52.7 | O=C(NCc1nnc(SCCCN2CCN(c3nc4ccccc4o3)CC2)o1)c1ccccc1
13 | 62.1 | 364 | 139 | 54.7 | 81.9 | Oc1ccc(-c2nnc(SCCCN3CCN(c4nc5ccccc5s4)CC3)o2)cc1
14 | 71.7 | 234 | 134 | 67 | 84.1 | Fc1ccc(-c2nnc(SCCCN3CCN(c4nc5ccccc5s4)CC3)o2)cc1
15 | 96.6 | 93.3 | 97.8 | 46.5 | 118 | O=[N+]([O-])c1ccc(-c2nnc(SCCCN3CCN(c4nc5ccccc5s4)CC3)o2)cc1
16 | 123 | 67.5 | 187 | 57.8 | 115 | Brc1ccc(-c2nnc(SCCCN3CCN(c4nc5ccccc5o4)CC3)o2)cc1
17 | 93.5 | 66.1 | 210 | 52.7 | 52.8 | COc1ccc(-c2nnc(SCCCN3CCN(c4nc5ccccc5o4)CC3)o2)cc1
18 | 106 | 154 | 133 | 100 | 60.4 | Cc1ccc(-c2nnc(SCCCN3CCN(c4nc5ccccc5o4)CC3)o2)cc1
19 | 181 | 502 | 99.5 | 116 | 260 | Oc1ccc(-c2nnc(SCCCN3CCN(c4nc5ccccc5o4)CC3)o2)cc1
20 | 22 | 16 | – | 22 | 26 | COc1cc(/C=C/C(=O)CC(=O)/C=C/c2ccc(O)c(OC)c2)ccc1O [CURCUMIN]
21 | 75.7 | 83.8 | 196 | 136 | 52.3 | Fc1ccc(-c2nnc(SCCCN3CCN(c4nc5ccccc5o4)CC3)o2)cc1
